{
  "source": "patent US9517224B2",
  "about": "“Methods of treating patients infected with HIV and HTLV” (THE UNITED STATES OF AMERICA, AS REPRESENTED BY THE …, priority 2012, dated 2016)",
  "system": "PBMC's from normal volunteers",
  "experiment": "mRNA for IL-4, INF-gamma, TNF-alpha and CD69 in PBMCs from normal volunteers",
  "type": "cell-based",
  "data": [
    {"substance": "ionomycine", "values": [
      {"measurement": "CD69 mRNA, relative fold difference versus untreated control", "result": 1.639, "unit": "fold"},
      {"measurement": "IFN-γ mRNA, relative fold difference versus untreated control", "result": 1.608, "unit": "fold"},
      {"measurement": "IL-4 mRNA, relative fold difference versus untreated control", "result": 0.716, "unit": "fold"},
      {"measurement": "TNF-α mRNA, relative fold difference versus untreated control", "result": 0.657, "unit": "fold"}
    ]}
  ]
}
